US4767621A (priority 1982, dated 1988)

Columns and labels:
[1] = system: human T lymphoblastoid cells of the CEM line bearing the antigen T-65
mouse = settings: intra-peritoneally, Westley 1977; cited from earlier work
[2] = Acute toxicity of monensin, single intra-peritoneal administration (own experiments); assay type: in vivo, mouse; settings: mouse, in vivo, ip; single administration intra-peritoneally; read-out: 50% lethal dose, per body weight
Experimental: (§1) Thus the acute toxicity of monensin in a single administration intra-peritoneally in the Charles River France mouse is characterised by a 50% lethal dose of 340 micrograms per mouse, namely 17 mg/kg of body weight.

[3] = system: Charles River France mouse; test: as above; assay type: in vivo; settings: single administration intra-peritoneally
Experimental: as §1

CC[C@@H](C(=O)[C@@H](C)[C@@H](O)[C@H](C)CCc1ccc(C)c(O)c1C(=O)O)[C@H]1O[C@](CC)([C@H]2CC[C@](O)(CC)[C@H](C)O2)C[C@@H]1C [Lasalocide, lasalocide]
potentiating effect (factor) on the cytotoxicity of immunotoxin anti-T-65 [1]: ~36000 | spontaneous cytotoxicity of the ionophore for the cells employed [1]: not spontaneously cytotoxic | 50% lethal dose (LD50) (mouse): 64 mg/kg

CC[C@@]1([C@@H]2O[C@@H]([C@H]3O[C@@](O)(CO)[C@H](C)C[C@@H]3C)C[C@@H]2C)CC[C@H]([C@]2(C)CC[C@]3(C[C@H](O)[C@@H](C)[C@@H]([C@@H](C)[C@@H](OC)[C@H](C)C(=O)O)O3)O2)O1 [Monensin, monensin]
LD50 [2]: 17 mg/kg | 50% lethal dose, per mouse [3]: 340 micrograms per mouse | potentiating effect (factor) on the cytotoxicity of immunotoxin anti-T-65 [1]: ~55000 | spontaneous cytotoxicity of the ionophore for the cells employed [1]: not spontaneously cytotoxic | 50% lethal dose (LD50) (mouse): 16.8 mg/kg

CO[C@@H]1C[C@@H](C[C@H]2CC[C@H](C)[C@H]([C@@H](C)C(=O)O)O2)O[C@]2(O[C@](C)([C@H]3CC[C@@](C)([C@@H]4O[C@@H]([C@H]5O[C@@](O)(CO)[C@H](C)C[C@@H]5C)C[C@@H]4C)O3)C[C@H]2C)[C@@H]1C [Nigericin, nigericin]
potentiating effect (factor) on the cytotoxicity of immunotoxin anti-T-65 [1]: ~7000 | spontaneous cytotoxicity of the ionophore for the cells employed [1]: not spontaneously cytotoxic | 50% lethal dose (LD50) (mouse): 65 mg/kg
